One assay deals with T1, human VEGFR2 kinase (Homo sapiens, UniProt P35968).
T1 construct: GST-fusion protein encoding the catalytic carboxyl-terminus of human VEGFR kinase 1, 2, or 3; made in house; host or cells: baculovirus expression system
Kind of assay: VEGFR2 kinase assay (HTRF). In kind it is biochemical. The note with it: Table 1. As for the experimental part: Vascular endothelial growth factor receptor kinase assays were carried out in a homogenous time-resolved fluorescence (HTRF) format in 384-well microtitre plates using a purified, baculovirus-expressed GST-fusion protein encoding the catalytic carboxyl-terminus of human VEGFR kinase 1, 2, or 3. Reactions were initiated by the addition of 10 μl of activated VEGFR kinase (1 nM, 0.1 M HEPES pH 7.5, 0.1 mg ml^−1 BSA, and 0.30 mM DTT) to 10 μl of substrate (360 nM biotin-aminohexyl-EEEEYFELVAKKKK-NH2 peptide, 75 μM ATP, 10 mM MgCl2) and 1 μl of small molecule inhibitor at various concentrations. Plates were incubated at room temperature for 60 min, and the reaction was stopped by the addition of 20 μl 100 mM EDTA. Homogenous time-resolved fluorescence reagents (20 μl 15 nM streptavidin-linked allophycocyanin, 1 nM europium-labelled anti-phosphotyrosine antibody in 0.1 M HEPES, pH 7.5, 0.1 mg ml^−1 BSA) were added and plates were incubated for a minimum of 10 min. The fluorescence at 665 nm was measured with a Victor plate reader (Wallac, Shelton, CT, USA) using a time delay of 50 μs. […] Data were fitted with a curve described by: y=((Vmax × x)/(K+x)+Y2), where Vmax is the upper asymptote, Y2 is the Y intercept, and K is the IC50.
(In general: TR-FRET usually uses a lanthanide donor and a delayed reading to cut background.)

For assay [1], the system named is HUVEC grown in presence of VEGF. Kind of assay: VEGF-induced HUVEC proliferation (BrdU incorporation). In kind it is cell-based. Conditions: Homo sapiens, VEGF 10 ng ml^−1, 72 h. The procedure:
(§1) Effect of kinase inhibitors on cell proliferation was measured using BrdU incorporation method using commercially available kits (Roche Diagnostics, Indianapolis, IN, USA). Briefly, HUVEC were seeded in a medium containing 5% FBS in type 1 Collagen-coated 96-well plates and incubated overnight at 37°C, 5% CO2. The medium was aspirated from the cells, and various concentrations of kinase inhibitors in serum-free medium were added to each well. After 30 min, VEGF (10 ng ml^−1) or bFGF (0.3 ng ml^−1) was added to the wells. Cells were incubated for an additional 72 h and BrdU (10 μM) was added during the last 18–24 h of incubation. Data were fitted with a curve described by the equation, y=Vmax × (1−(x/(K+x))), where K is equal to the IC50.
(Uptake of a labelled nucleoside into DNA is a usual measure of proliferation.)

For assay [2], the system named is HUVEC grown in presence of bFGF. Kind of assay: bFGF-induced HUVEC proliferation (BrdU incorporation). Format: cell-based. The note with it: Homo sapiens, bFGF 0.3 ng ml^−1, 72 h. As for the experimental part: as §1

T1 sequence (P35968 834-1162 limits assumed): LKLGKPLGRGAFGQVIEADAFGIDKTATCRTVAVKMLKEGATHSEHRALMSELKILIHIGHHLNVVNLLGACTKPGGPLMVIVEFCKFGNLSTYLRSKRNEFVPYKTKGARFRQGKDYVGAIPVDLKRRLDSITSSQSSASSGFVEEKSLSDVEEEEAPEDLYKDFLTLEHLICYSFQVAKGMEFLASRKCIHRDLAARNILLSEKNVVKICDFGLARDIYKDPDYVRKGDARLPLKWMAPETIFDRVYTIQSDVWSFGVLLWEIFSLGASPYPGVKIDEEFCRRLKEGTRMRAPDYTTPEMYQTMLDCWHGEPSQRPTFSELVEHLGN

For the compound `COc1cc(Nc2nccc(Nc3ccc4c(C)n[nH]c4c3)n2)cc(OC)c1OC` [GW612286, N^4-(3-methyl-1H-indazol-6-yl)-N^2-(3,4,5-trimethoxyphenyl)pyrimidine-2,4-diamine], the IC50 on human VEGFR2 kinase was 8 nM; in assay [1] it was 180 nM; in assay [2], 3630 nM.
As to `Cc1n[nH]c2cc(N(C)c3ccnc(Nc4cc(S(N)(=O)=O)ccc4Cl)n3)ccc12` [GW695612, 4-chloro-3-({4-[methyl(3-methyl-1H-indazol-6-yl)amino]pyrimidin-2-yl}amino)benzenesulphonamide], the IC50 against human VEGFR2 kinase came out at 1.1 nM; in assay [1] it was 260 nM; in assay [2], 3840 nM.

As usually defined, the IC50 is the concentration at which inhibition is half-maximal.

For the origin of these results see paper PMC2409895, “Antitumour efficacy of VEGFR2 tyrosine kinase inhibitor correlates with expression of VEGF and its receptor VEGFR2 in tumour models” (British Journal of Cancer, 2004).
